Assay results published in patent US10308689B2, “Dengue virus (DV) polypeptide sequences, T cell epitopes and methods and uses thereof” (LA JOLLA INSTITUTE FOR ALLERGY AND IMMUNOLOGY, priority 2010, dated 2019).
Ends that are not written are not given here.

Assays:
[1] = system: splenic CD8+ T cells from DENV3 (D3S5CX) infected HLA transgenic IFN-α/βR−/− mice; experiment: IFNγ ELISPOT, CD8+ T cells of DENV3 (D3S5CX) infected HLA class I transgenic IFN-α/βR−/− mice; type: cell-based, mouse; conditions: day 7 after DENV3 D3S5CX, SFC/10^6 T cells
[2] = biological target: T1, HLA A*0201 (Homo sapiens, UniProt P04439, D140Y/D185E/D98H/E176V/E277Q/G131W/G231S/I119V/I121R/I166T/I218V/L300P/L318F/N151K/N90K/P208A/P217A/Q86G/Q94H/R138H/R169H/T345S); experiment: MHC peptide-binding assay, purified A*0201
T1 construct: made in house

[3] = biological target: purified HLA molecules (corresponding predicted allele); experiment: MHC peptide-binding assay, summary over alleles; parameters: species or system human
[4] = system: PBMC of healthy adult blood donors from Colombo, Sri Lanka; experiment: Ex vivo IFNγ ELISPOT, HLA-matched PBMC of Sri Lankan blood donors; type: cell-based, human; parameters: Total Response per epitope: unit not given here; conditions: for # donors responded: number of donors responding to the epitope; for T cell response [SFC]: ex vivo IFNγ SFC/10^6 PBMC; for # of responders: responding donors, HLA allele(s)
[5] = biological target: T2, HLA B*0702 (Homo sapiens, UniProt P01889); experiment: MHC peptide-binding assay, purified B*0702
T2 construct: made in house

[6] = HLA A*0201 transgenic IFN-α/βR−/− mice
[7] = IFNγ ELISPOT response summed over responding donors, per epitope
[8] = HLA-matched PBMC, proteome-wide screen
[9] = HLA B*0702 transgenic IFN-α/βR−/− mice
[10] = HLA allele, supertype and serotype
[11] = summed IFNγ ELISPOT response per epitope, HLA allele and serotype as given

Sequence: ILALFLAHYI [Epitope M250-259]
- T cell response [SFC] [1, 6]: 1595 SFC
- IC50 [2]: 0.0063 µM

Sequence: ILWENNIKL [NS1854-862]
- T cell response [SFC] [1, 6]: 2238 SFC
- IC50 [2]: 0.0027 µM

Sequence: KLEKASLIEV [NS1987-996]
- T cell response [SFC] [1, 6]: 488 SFC
- IC50 [2]: 0.077 µM

Sequence: MEITAEWLW
- IC50 ([3]; allele B*5801): 0.005 µM
- Total Response per epitope [4, 7]: 583.3
- # donors responded [4, 8]: 1
- T cell response [SFC] ([4]; per epitope): 583 SFC
- # of responders [4]: 1

Sequence: MLVTPSMTM
- IC50 ([3]; allele B*3501): 3.85 µM
- Total Response per epitope [4, 7]: 1735.0
- # donors responded [4, 8]: 8
- T cell response [SFC] ([4]; per epitope): 1735 SFC
- # of responders [4]: 8

Sequence: MMATIGIAL [MMATIGIAL]
- IC50 ([3]; allele B*3501): 1.12 µM
- Total Response per epitope [4, 7]: 908.3
- # donors responded [4, 8]: 6

Sequence: NPEIEDDIF
- IC50 ([3]; allele B*3501): 0.518 µM
- Total Response per epitope [4, 7]: 3390.0
- # donors responded [4, 8]: 10
- T cell response [SFC] ([4]; per epitope): 3390 SFC
- # of responders [4]: 10

Sequence: QYIFTGQPL
- IC50 ([3]; allele A*2402): 0.271 µM
- Total Response per epitope [4, 7]: 138.3
- # donors responded [4, 8]: 1

Sequence: RAAVEDEEF
- IC50 ([3]; allele B*5801): 0.866 µM
- Total Response per epitope [4, 7]: 381.7
- # donors responded [4, 8]: 1

Sequence: RPMPGTRKV [NS52860-2868]
- T cell response [SFC] [1, 9]: 461 SFC
- IC50 [5]: 0.0027 µM

Sequence: SLAAIANQAV [NS4B2311-2320]
- T cell response [SFC] [1, 6]: 858 SFC
- IC50 [2]: 0.0067 µM

Sequence: SLCLMMILPA [Epitope C103-112]
- T cell response [SFC] [1, 6]: 244 SFC
- IC50 [2]: 0.0057 µM

Sequence: TPPGSRDPF
- IC50 ([3]; allele B*3501): 0.161 µM
- # donors responded [4, 10]: 7
- Total Response per epitope [4, 11]: 1416.7

Sequence: VATTFVTPM
- IC50 ([3]; allele B*3501): 0.205 µM
- # donors responded [4, 10]: 8
- T cell response [SFC] ([4]; per epitope): 2777 SFC
- # of responders [4]: 8
- Total Response per epitope [4, 11]: 2776.7

Sequence: VPLLAIGCY
- IC50 ([3]; allele B*3501): 0.168 µM
- # donors responded [4, 10]: 7
- T cell response [SFC] ([4]; per epitope): 1520 SFC
- # of responders [4]: 7
- Total Response per epitope [4, 11]: 1520.0

Sequence: VPMAGPLVAG [NS2B1373-1382]
- T cell response [SFC] [1, 9]: 28 SFC
- IC50 [5]: 0.115 µM

Sequence: YAMCTNTFVL [Epitope E580-589]
- T cell response [SFC] [1, 6]: 658 SFC
- IC50 [2]: 0.033 µM

Sequence: YENLKYSVI
- IC50 ([3]; allele B*4402): 0.09 µM
- # donors responded [4, 10]: 1
- Total Response per epitope [4, 11]: 381.7

Sequence: YLALIATFKI [NS2A1202-1211]
- T cell response [SFC] [1, 6]: 1089 SFC
- IC50 [2]: 0.01 µM

Sequence: YQLWTALVSL [NS2A1271-1280]
- T cell response [SFC] [1, 6]: 1122 SFC
- IC50 [2]: 0.0017 µM
